In patent publication US20100021524A1 (OsteoGeneX Inc., priority 2008, published 2010):
Where a name gives a salt, the structure may show the parent alone.

How the values were obtained:
Wnt pathway = assay: Modulation of the Wnt pathway to promote bone growth (FIG. 1); conditions: doses of 2.5 ng (low), 125 ng (high) and 1250 ng (very high)
Experimental: (§1) For example, the mouse test animal is treated with a predetermined dose of a SOST antagonist candidate for a complete dosing schedule. A control mouse is treated with a control solution, preferably a non-irritating buffer solution or other carrier. Once the dosing schedule has been completed, both test and control animals are examined with sacrifice using micro-CT to determine the quantity of bone formation present.

C57BL/6 mice = assay: Bone growth with pimethixene: 30-day daily i.p. treatment, serum osteocalcin (EIA Elisa) and trabecular bone volume (micro-CT); format: in vivo, mouse; conditions: four month old male C57BL/6 mice, daily i.p. for 30 days, FIG. 2
Experimental: Four month old male C57BL/6 mice were treated daily with saline vehicle or the sclerostin inhibitor of pimethixene at several doses (via i.p) for 30 days. Study endpoints included a biochemical marker of bone formation; osteocalcin, measured by EIA Elisa, and measurement of trabecular bone volume by mico-CT analysis on the proximal tibia and spine (lumbar 5).

mouse = assay: Mouse bone formation assay for SOST antagonist candidates, examined by micro-CT; format: in vivo; conditions: complete dosing schedule, versus control solution
Source text: Compounds useful in the methods of the present invention can be identified via a variety of methods known to one of skill in the art. Several exemplary methods for identifying such antagonists are described herein, including cell-based and in vitro techniques (Journal of Bone and Mineral Research 2006, 21(11), 1738-1749). A general method of identifying SOST antagonists involves evaluating the effects of antagonist candidates on bone formation under controlled conditions. Preferably bone formation is determined using micro-CT techniques on live animals. Preferred animals include rodents, more preferred are primates. Femur, tibia and vertebrae bones are particularly useful subjects for such study.
Briefly, the test animal is treated with a predetermined dose of a SOST antagonist candidate. […]
Once the dosing schedule has been completed, both test and control animals are examined to determine the quantity of bone formation present. […] Where necessary, levels of bone formation can be calculated by determining the volume of bone formation present in each animal. […]
as §1, with “A control mouse is treated with a control solution, preferably a non-irritating buffer solution or other carrier.” left out

SMILES | modulating the Wnt pathway to promote bone growth (Wnt pathway) | increase in bone volume for lumbar 5 over baseline controls, μ-CT analysis (C57BL/6 mice; dosed at 0.01 mg/kg, 0.1 mg/kg or 10 mg/kg) | percent increase in serum osteocalcin bone formation marker over saline controls (C57BL/6 mice; dosed between 10 mg/kg and 0.1 mg/kg) [%] | bone growth (quantity of bone formation present, micro-CT) (mouse)
CN1CCC(=C2c3ccccc3Sc3ccccc32)CC1 [pimethixene maleate] | modulating the Wnt pathway to promote bone growth | greater than 30% | 25 | 
CN1CCC(=C2c3ccccc3Sc3ccccc32)CC1 [pimethixene] |  |  |  | promoting bone growth
